Experimental data as given in BindingDB's records for doi:10.1021/jm00114a022 (Smithkline Beecham Pharmaceuticals Research and Development, 1991).
Where a SMILES comes first, the peptide text is derived from it. Bridges are numbered along the chain shown (N, C = ends). [ ]: non-standard residue; d: D form. NMeR = CN[C@@H](CCCNC(=N)N)C(=O)O; hArg = N=C(N)NCCCC[C@H](N)C(=O)O; Cit = NC(=O)NCCC[C@H](N)C(=O)O; Pen = CC(C)(S)[C@H](N)C(=O)O; Sar = CNCC(=O)O

Assay: Inhibition of human washed platelet aggregation
Compound `CC(=O)N[C@H]1CSSC(C)(C)[C@@H](C(N)=O)NC(=O)[C@H](CC(=O)O)NC(=O)CNC(=O)[C@H](CCCN=C(N)N)N(C)C1=O` (Ac-C[NMeR]GD[Pen]-NH2; disulfide 1-5) has a Ki of 0.062 µM.

Assay: Inhibition of canine platelet-rich plasma agregation induced by ADP
Work on `CC(=O)N[C@@H](CCCNC(=N)N)C(=O)NCC(=O)N[C@H](CC(=O)N[C@@H](CO)C(N)=O)C(=O)O` yielded an IC50 of over 200 µM. In the case of `CC(=O)N[C@H](CCCCNC(=N)N)C(=O)NCC(=O)N[C@@H](CC(=O)O)C(=O)N[C@@H](CO)C(N)=O`, the IC50 is reported as 68.2 µM. For `CC(=O)N[C@@H](CCCNC(=N)N)C(=O)NCC(=O)N[C@@H](CCC(=O)O)C(=O)N[C@@H](CO)C(N)=O`, the IC50 was over 200 µM. With `CC(=O)N[C@@H]1C(=O)N[C@@H](CCCN=C(N)N)C(=O)NCC(=O)N[C@@H](CC(=O)O)C(=O)N[C@H](C(N)=O)CSSC1(C)C` the IC50 was 7.97 µM. Work on `CC(=O)N[C@@H](CCCNC(=N)N)C(=O)NCC(=O)N[C@@H](CC(=O)O)C(N)=O` yielded an IC50 of 138 µM. `CC(=O)N[C@H]1CSSC[C@@H](C(N)=O)NC(=O)[C@H](CC(=O)O)NC(=O)CNC(=O)[C@H](CCCN=C(N)N)NC(=O)CNC1=O` gave an IC50 of 52 µM. In the case of `CC(=O)N[C@H]1CSSC[C@@H](C(N)=O)NC(=O)[C@H](CC(=O)O)NC(=O)CNC(=O)[C@H](CCCN=C(N)N)NC1=O`, the IC50 is reported as 16.2 µM. Compound `CC(=O)N[C@H]1CSSC(C)(C)[C@@H](C(N)=O)NC(=O)[C@H](CC(=O)O)NC(=O)CNC(=O)[C@H](CCCN=C(N)N)NC(=O)CNC1=O` has an IC50 of 11.4 µM. In the case of `CC(=O)N[C@@H](CCCNC(=N)N)C(=O)NCC(=O)N[C@@H](CC(=O)O)C(=O)NCCc1ccccc1`, the IC50 is reported as 75.9 µM. For `CC(=O)N[C@H]1CSSC(C)(C)[C@@H](C(N)=O)NC(=O)[C@H](CC(=O)O)NC(=O)CN(C)C(=O)[C@H](CCCN=C(N)N)NC1=O`, the IC50 was 73.4 µM. Work on `CC(=O)N[C@@H]1C(=O)N(C)[C@@H](CCCN=C(N)N)C(=O)NCC(=O)N[C@@H](CC(=O)O)C(=O)N[C@H](C(N)=O)C(C)(C)SSC1(C)C` yielded an IC50 of 0.37 µM. With `CC(=O)N[C@H]1CSSC(C)(C)[C@@H](C(N)=O)NC(=O)[C@H](CC(=O)O)NC(=O)CNC(=O)[C@H](CCCCN)NC1=O` (Ac-CKGD[Pen]-NH2; disulfide 1-5) the IC50 was 55.3 µM. Compound `CC(=O)N[C@H]1CSSC(C)(C)[C@@H](C(N)=O)NC(=O)[C@H](CC(=O)O)NC(=O)[C@H](C)NC(=O)[C@H](CCCN=C(N)N)NC1=O` (Ac-CRAD[Pen]-NH2; disulfide 1-5) has an IC50 of 200 µM. In the case of `CC(=O)N[C@H]1CSSC[C@@H](C(N)=O)NC(=O)[C@H](CO)NC(=O)[C@H](CC(=O)O)NC(=O)CNC(=O)[C@H](CCCN=C(N)N)NC1=O` (Ac-CRGDSC-NH2; disulfide 1-6), the IC50 is reported as 32.7 µM. In the case of `CC(=O)N[C@H]1CSSC(C)(C)[C@@H](C(N)=O)NC(=O)[C@H](CC(=O)O)NC(=O)CNC(=O)[C@H](CCCN=C(N)N)N(C)C1=O` (Ac-C[NMeR]GD[Pen]-NH2; disulfide 1-5), the IC50 is reported as 0.355 µM. `CC(=O)N[C@H]1CSSC(C)(C)[C@@H](C(N)=O)NC(=O)[C@H](CC(N)=O)NC(=O)CNC(=O)[C@H](CCCN=C(N)N)N(C)C1=O` (Ac-C[NMeR]GN[Pen]-NH2; disulfide 1-5) gave an IC50 of over 200 µM. Work on `CC(=O)N[C@H]1CSSC(C)(C)[C@@H](C(N)=O)NC(=O)[C@H](CC(=O)O)NC(=O)CNC(=O)[C@H](CCCCN=C(N)N)NC1=O` (Ac-C[hArg]GD[Pen]-NH2; disulfide 1-5) yielded an IC50 of 3.85 µM. `CC(=O)N[C@@H](Cc1cnc[nH]1)C(=O)NCC(=O)N[C@@H](CC(=O)O)C(=O)N[C@@H](CO)C(N)=O` (Ac-HGDS-NH2) gave an IC50 of over 200 µM. In the case of `CC(=O)N[C@@H](CCCCN)C(=O)N[C@H]1CSSC(C)(C)[C@@H](C(=O)O)NC(=O)[C@H](CC(=O)O)NC(=O)CNC(=O)[C@H](C)NC1=O` (Ac-KCAGD[Pen]-OH; disulfide 2-6), the IC50 is reported as over 200 µM. For `CC(=O)N[C@@H](CCCCN)C(=O)NCC(=O)N[C@@H](CC(=O)O)C(=O)N[C@@H](CO)C(N)=O` (Ac-KGDS-NH2), the IC50 was over 200 µM. In the case of `CC(=O)N[C@@H](CCCCN)C(=O)NCC(=O)N[C@@H](CCC(=O)O)C(=O)N[C@@H](CO)C(N)=O` (Ac-KGES-NH2), the IC50 is reported as over 200 µM. Work on `CC(=O)N[C@@H](CCCNC(=N)N)C(=O)N[C@@H](C)C(=O)N[C@@H](CC(=O)O)C(=O)N[C@@H](CO)C(N)=O` (Ac-RADS-NH2) yielded an IC50 of over 200 µM. With `CCNC(=O)[C@H](CO)NC(=O)[C@H](CC(=O)O)NC(=O)CNC(=O)[C@H](CCCNC(=N)N)NC(C)=O` (Ac-RGDS-NHEt) the IC50 was over 200 µM. In the case of `CC(=O)N[C@@H](CCCNC(=N)N)C(=O)NCC(=O)N[C@@H](CC(=O)O)C(=O)N[C@H](C(N)=O)C(C)C` (Ac-RGDV-NH2), the IC50 is reported as 55.5 µM. In the case of `CC(=O)N[C@@H](CCCNC(=N)N)C(=O)NCC(=O)N[C@@H](CC(=O)O)C(=O)N[C@@H](Cc1ccc(O)cc1)C(N)=O` (Ac-RGDY-NH2), the IC50 is reported as 102 µM. With `CC(=O)N[C@@H](CCCNC(=N)N)C(=O)NCC(=O)N[C@@H](CC(N)=O)C(=O)N[C@@H](CO)C(N)=O` (Ac-RGNS-NH2) the IC50 was over 200 µM. In the case of `CC(=O)N[C@@H](CCCNC(=N)N)C(=O)N1CCC[C@H]1C(=O)N[C@@H](CC(=O)O)C(=O)N[C@@H](CO)C(N)=O` (Ac-RPDS-NH2), the IC50 is reported as over 200 µM. For `CC(=O)N[C@@H](CCCNC(=N)N)C(=O)N(C)CC(=O)N[C@@H](CC(=O)O)C(=O)N[C@@H](CO)C(N)=O` (Ac-R[Sar]DS-NH2), the IC50 was over 200 µM. `CC(=O)N[C@@H](CCCNC(N)=O)C(=O)NCC(=O)N[C@@H](CC(=O)O)C(=O)N[C@@H](CO)C(N)=O` (Ac-[Cit]GDS-NH2) gave an IC50 of over 200 µM. In the case of `CC(=O)N[C@@H](Cc1c[nH]cn1)C(=O)N[C@@H](Cc1c[nH]cn1)C(=O)N[C@@H](CC(C)C)C(=O)NCC(=O)NCC(=O)N[C@@H](C)C(=O)N[C@@H](CCCCN)C(=O)N[C@H]1CSSC(C)(C)[C@@H](C(N)=O)NC(=O)[C@H](CC(=O)O)NC(=O)CNC(=O)[C@H](CCCN=C(N)N)NC1=O` [1N-[1-formyl-(1S)-ethylcarbamoylmethylcarbamoylmethyl]-2-[2-(1H-5-imidazolyl)-1-[2-(1H-5-imidazolyl)-1-methylcarboxamido-(1S)-ethylcarboxamido]-(1S)-ethylcarboxamido]-4-methyl-(2S)-pentanamide [4-Carbamoyl-16-(2,6-diamino-hexanoylamino)-13-(3-guanidino-propyl)-3,3-dimethyl-6,9,12,15-tetraoxo-1,2-dithia-5,8,11,14-tetraaza-cycloheptadec-7-yl]-acetic acid], the IC50 is reported as 9.6 µM. With “Ac-HHLGGAKQAGDV-OH [1N-[1-[5-amino-1-formyl-(1S)-pentylcarbamoyl]-(1S)-ethylcarbamoylmethylcarbamoylmethyl]-2-[2-(1H-5-imidazolyl)-1-[2-(1H-5-imidazolyl)-1-methylcarboxamido-(1S)-ethylcarboxamido]-(1S)-ethylcarboxamido]-4-methyl-(2S)-pentanamide 2-[1-[1-[1-amino-3-carbamoyl-(1S)-propylcarboxamido]-(1S)-ethylcarboxamidomethylcarboxamido]-2-carboxy-(1S)-ethylcarboxamido]-3-methyl-(2S)-butanoic acid]” the IC50 was over 200 µM. In the case of Ac-RRGDF-NH2, the IC50 is reported as 113 µM.
